{
  "source": "patent US12691124B2",
  "about": "“Methods of controlling and improving brain health” (ICAHN SCHOOL OF MEDICINE AT MOUNT SINAI, priority 2019, dated 2026)",
  "target": "T1, BRD2 (Mus musculus, UniProt Q7JJ13)",
  "T1 construct": "Primary cortical neurons express BRD2/3/4, with BRD2 and BRD4 being the most abundant; endogenous in cells; host or cells: primary cortical neuronal cultures (mouse)",
  "T1 sequence (Q7JJ13 whole entry)": "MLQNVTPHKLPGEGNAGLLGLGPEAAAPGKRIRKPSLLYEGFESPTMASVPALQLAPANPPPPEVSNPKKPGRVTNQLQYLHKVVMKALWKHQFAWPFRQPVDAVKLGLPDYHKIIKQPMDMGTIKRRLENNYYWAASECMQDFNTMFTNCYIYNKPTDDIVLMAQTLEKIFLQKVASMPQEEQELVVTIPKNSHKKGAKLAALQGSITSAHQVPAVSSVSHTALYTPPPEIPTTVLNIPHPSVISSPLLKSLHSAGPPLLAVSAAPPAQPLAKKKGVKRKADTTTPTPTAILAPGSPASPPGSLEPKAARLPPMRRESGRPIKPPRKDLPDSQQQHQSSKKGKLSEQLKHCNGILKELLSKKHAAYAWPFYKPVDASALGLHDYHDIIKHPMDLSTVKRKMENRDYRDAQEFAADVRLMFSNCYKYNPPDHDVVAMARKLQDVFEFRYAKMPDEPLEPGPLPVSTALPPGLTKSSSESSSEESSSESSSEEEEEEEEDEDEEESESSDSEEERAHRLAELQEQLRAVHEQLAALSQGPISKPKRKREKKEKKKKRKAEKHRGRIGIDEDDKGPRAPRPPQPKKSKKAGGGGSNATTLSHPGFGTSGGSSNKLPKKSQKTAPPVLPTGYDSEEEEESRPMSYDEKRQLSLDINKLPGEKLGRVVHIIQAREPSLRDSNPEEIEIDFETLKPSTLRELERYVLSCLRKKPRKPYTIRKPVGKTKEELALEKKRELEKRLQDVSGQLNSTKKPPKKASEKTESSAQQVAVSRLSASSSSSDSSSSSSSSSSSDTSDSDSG",
  "assay": "ChIP sequencing of BRD2 chromatin occupancy in neurons",
  "format": "cell-based",
  "experimental": "Chromatin Immunoprecipitation with Sequencing. Primary cortical neuronal cultures were washed once with PBS then fixed for 10 minutes with a 1% formaldehyde solution in PBS with protease inhibitors (Sigma #P8340) at room temperature. Fixation was quenched adding glycine to a final concentration of 0.125M (5 minutes, room temperature). 10e6 fixed cells were resuspended in 1 ml of lysis buffer (50 mM Hepes KOH, pH7.5, 140 mM NaCl, 1 mM EDTA, 10% glycerol, 0.5% NP-40, 0.25% Triton X-100) and 10 ul of protease inhibitor cocktail (PIC). Samples were rotated for 10 minutes at 4 degrees then spun at 1350 g at 4 C for 10 minutes. Pellets were resuspended in 1 ml of lysis buffer 2 (10 mM Tris-HCl pH8.0, 200 mM NaCl, 1 mM EDTA, 0.5 mM EGTA) and 10 ul PIC.). 5e6 nuclei were sonicated in lysis buffer 3 (10 mM Tris-HCl pH8.0, 100 mM NaCl, 1 mM EDTA, 0.5 mM EGTA, 0.1% Na-Deoxicholate, 0.5% N-Lauroylsarcosine) at 4 degrees for 5 cycles of 30 seconds ON/30 seconds OFF using the Diagenode bioruptor. After, 30 ul of 10% Triton-X100 was added to each sample and then spun for 15 minutes at 20,000 g at 4 degrees. Sonication efficiency was checked by running the samples on a 2% agarose gel to confirm enrichment for fragments from 200-500 bps.\nStreptavidin M-280 dynabeads were blocked with 0.5% BSA solution and coupled to 7 ug of antibody (Brd4 #Ab84778, Brd2 Bethyl #A302-583A, Pol2 Ser5 #Ab5408) for at least 8 hours at 4 degrees, rotating. Antibody-coupled beads were then added to sonicated chromatin (20e6 cells for Brd2/Brd4, 10e6 for Pol2) and incubated overnight at 4 degrees. After washing the IPs eight times with wash buffer (50 mM Hepes-KOH pH7.6, 100 mM LiCl, 1 mM EDTA, 1% NP-40, 0.7% Na-Deoxycholate) and once with TE buffer (10 mM Tris-HCl, 1 mM EDTA, 50 mM NaCl), Chromatin was eluted from magnetic beads in 200 ul elution buffer ([…] Tris-HCl pH8.0, 10 mM EDTA, 1% SDS) for 45 minutes at 65 degrees. Samples were de-crosslinked overnight at 65 degrees and proteins and RNA were removed by incubating with RNAse and proteinase k. Samples were purified using the Qiagen PCR purification kit according to the manufacturers protocol.\nSamples were end-repaired using the End-IT DNA End-Repair Kit (#ER0720). After 45 minutes incubation, samples were purified using the Qiagen PCR Clean up kit as described above. Samples were adenylated using a reaction mix (200 uM dATP, 1× Klenow buffer NEB2, Klenow Fragment (3′ to 5′ exo-), NEB M0212L) and incubating at 37 degrees for 30 minutes. […] Raw sequencing reads were then aligned to the mouse mm9 genome using the default settings of Bowtie (v2.2.0)87. Only uniquely mapped reads were retained, and the alignments were subsequently filtered using the SAMtools package (v0.1.19)88 to remove duplicate reads. […]",
  "data": [
    {"smiles": "CC(=O)N1c2ccc(-c3ccc(CN4CCCCC4)cc3)cc2[C@H](Nc2ccccc2)CC1C", "note": "(stereo in doubt) [IBET858]", "values": [
      {"measurement": "genes that lose BRD2 at the transcriptional start site", "setting": "6 h IBET858", "value": 1497, "unit": "genes"},
      {"measurement": "genes with gain of BRD2 at the transcriptional start site", "setting": "6 h IBET858", "value": 828, "unit": "genes"},
      {"measurement": "loci with reduced occupancy of BRD2", "setting": "DIV7, 6 h IBET858", "value": 2099, "unit": "loci"},
      {"measurement": "loci with increased occupancy of BRD2", "setting": "day 7, 6 h IBET858", "value": 1680, "unit": "loci"}
    ]}
  ]
}
